In patent US20210047304A1, “Bromodomain Inhibitors” (AbbVie Inc., priority 2016, published 2021) one finds Ki data, which are given here for 19 compounds.

Some results are limits rather than exact numbers.

As a reminder, the Ki is a dissociation constant, usually derived from enzyme kinetics or from competition with a known ligand. Higher therefore signals weaker binding.

In this assay the target is BRD4 (BDI_K57-E168) (Homo sapiens, UniProt O60885). Nature of the assay: TR-FRET bromodomain binding assay, BRD4 BDI. Here is the method: A time-resolved fluorescence resonance energy transfer (TR-FRET) assay was used to determine the affinities of compounds of the Examples listed in Table 1 for each bromodomain of BRD4. […] An Alexa647-labeled BET-inhibitor was used as the fluorescent probe in the assay.
Compound dilution series were prepared in DMSO via an approximately 3-fold serial dilution. Compound dilutions were added directly into white, low-volume assay plates (Perkin Elmer Proxiplate 384 Plus #6008280) using a Labcyte Echo in conjunction with Labcyte Access and Thermo Multidrop CombinL robotics. Compounds were then suspended in eight microliters (μL) of assay buffer (20 mM Sodium Phosphate, pH 6.0, 50 mM NaCl, 1 mM Ethylenediaminetetraacetic acid disodium salt dihydrate, 0.01% Triton X-100, 1 mM DL-Dithiothreitol) containing His-tagged bromodomain, Europium-conjugated anti-His antibody (Invitrogen PV5596) and Alexa-647-conjugated probe.
After a one-hour equilibration at room temperature, TR-FRET ratios were determined using an Envision multilabel plate reader (Ex 340, Em 495/520).
TR-FRET data were normalized to the means of 24 no-compound controls (“high”) and 8 controls containing 1 μM un-labeled probe (“low”). Percent inhibition was plotted as a function of compound concentration and the data were fit with the 4 parameter logistic equation to obtain IC50s. Inhibition constants (Ki) were calculated from the IC50s, probe Kd and probe concentration.
Compound dilution series for Compounds A-E were prepared in DMSO via an approximately 3-fold serial dilution from 0.47 mM to 7.8 nM.
Compound dilutions were added directly into white, low-volume assay plates (Perkin Elmer Proxiplate 384 Plus #6008280) using a Labcyte Echo in conjunction with Labcyte Access and Thermo Multidrop CombinL robotics. Compounds were then suspended in eight microliters (μL) of assay buffer (20 mM Sodium Phosphate, pH 6.0, 50 mM NaCl, 1 mM Ethylenediaminetetraacetic acid disodium salt dihydrate, 0.01% Triton X-100, 1 mM DL-Dithiothreitol) containing His-tagged bromodomain, Europium-conjugated anti-His antibody (Invitrogen PV5596) and Alexa-647-conjugated probe.
TR-FRET data were normalized to the means of 24 no-compound controls (“high”) and 8 controls containing 1 μM un-labeled probe (“low”). Percent inhibition was plotted as a function of compound concentration and the data were fit with the 4 parameter logistic equation to obtain IC50s. Inhibition constants (Ki) were calculated from the IC50s, probe Kd and probe concentration. Typical Z′ values were between 0.65 and 0.75. The minimum significant ratio was determined to evaluate assay reproducibility (Eastwood et al., (2006) J Biomol Screen, 11: 253-261). The MSR was determined to be 2.03 for BDI and 1.93 for BDII, and a moving MSR (last six run MSR overtime) for both BDI and BDII was typically <3.
Background: Time-resolved FRET reads energy transfer from a long-lived donor to a nearby acceptor.
In the case of `Cc1cc(F)cc(C)c1Oc1ccc(C(C)(C)O)cc1-c1cn(C)c(=O)cc1O[C@H]1CC[C@H](N2C(=O)[C@H](C)N(C)C2=O)CC1` [Example 83, (5S)-3-[trans-4-({5-[2-(4-fluoro-2,6-dimethylphenoxy)-5-(2-hydroxypropan-2-yl)phenyl]-1-methyl-2-oxo-1,2-dihydropyridin-4-yl}oxy)cyclohexyl]-1,5-dimethylimidazolidine-2,4-dione], affinity was put at a Ki of 5890 nM.

The compound `COCCN(C(=O)C1(C)CC1)[C@H]1CC[C@H](Oc2cc(=O)n(C)cc2-c2cc(C(C)(C)O)ccc2Oc2c(C)cc(F)cc2C)CC1` [Example 64, N-[trans-4-({5-[2-(4-fluoro-2,6-dimethylphenoxy)-5-(2-hydroxypropan-2-yl)phenyl]-1-methyl-2-oxo-1,2-dihydropyridin-4-yl}oxy)cyclohexyl]-N-(2-methoxyethyl)-1-methylcyclopropane-1-carboxamide] had a Ki of 1950 nM. As for `Cc1cc(F)cc(C)c1Oc1ccc(C(C)(C)O)cc1-c1cn(C)c(=O)cc1O[C@H]1CC[C@H](NC(=O)C2CC2)CC1` [Example 50, N-[trans-4-({5-[2-(4-fluoro-2,6-dimethylphenoxy)-5-(2-hydroxypropan-2-yl)phenyl]-1-methyl-2-oxo-1,2-dihydropyridin-4-yl}oxy)cyclohexyl]cyclopropanecarboxamide], the figure is 2830 nM; as for `CC(=O)N(C)[C@H]1CC[C@H](Oc2cc(=O)n(C)cc2-c2cc(C(C)(C)O)ccc2Oc2c(C)cc(F)cc2C)CC1` [Example 16, N-[trans-4-({5-[2-(4-fluoro-2,6-dimethylphenoxy)-5-(2-hydroxypropan-2-yl)phenyl]-1-methyl-2-oxo-1,2-dihydropyridin-4-yl}oxy)cyclohexyl]-N-methylacetamide], 2830 nM.

As to `Cc1cc(F)cc(C)c1Oc1ccc(C(C)(C)O)cc1-c1cn(C)c(=O)cc1O[C@H]1CC[C@H](n2cccnc2=O)CC1` [Example 143, 1-[trans-4-({5-[2-(4-fluoro-2,6-dimethylphenoxy)-5-(2-hydroxypropan-2-yl)phenyl]-1-methyl-2-oxo-1,2-dihydropyridin-4-yl}oxy)cyclohexyl]pyrimidin-2(1H)-one], the Ki came to 5240 nM. Take `CC(=O)N[C@H]1C[C@H](Oc2cc(=O)n(C)cc2-c2cc(C(C)(C)O)ccc2Oc2c(C)cc(F)cc2C)C1` [Example 100, N-[trans-3-({5-[2-(4-fluoro-2,6-dimethylphenoxy)-5-(2-hydroxypropan-2-yl)phenyl]-1-methyl-2-oxo-1,2-dihydropyridin-4-yl}oxy)cyclobutyl]acetamide]: the Ki came out at 719 nM. As for `CC(=O)N1CCC(Nc2cc(=O)n(C)cc2-c2cc(C(C)(C)O)ccc2Oc2c(C)cccc2C)C1` (stereo not shown) [Example 14, 4-[(1-acetylpyrrolidin-3-yl)amino]-5-[2-(2,6-dimethylphenoxy)-5-(2-hydroxypropan-2-yl)phenyl]-1-methylpyridin-2(1H)-one], the figure is 1550 nM; as for `COCC1(C(=O)N[C@H]2CC[C@H](Oc3cc(=O)n(C)cc3-c3cc(C(C)(C)O)ccc3Oc3c(C)cc(F)cc3C)CC2)CC1` [Example 70, N-[trans-4-({5-[2-(4-fluoro-2,6-dimethylphenoxy)-5-(2-hydroxypropan-2-yl)phenyl]-1-methyl-2-oxo-1,2-dihydropyridin-4-yl}oxy)cyclohexyl]-1-(methoxymethyl)cyclopropane-1-carboxamide], 4100 nM; as for `Cc1cc(F)cc(C)c1Oc1ccc(C(C)(C)O)cc1-c1cn(C)c(=O)cc1O[C@H]1CC[C@H](NC(=O)C2(C#N)CC2)CC1` [Example 85, 1-cyano-N-[trans-4-({5-[2-(4-fluoro-2,6-dimethylphenoxy)-5-(2-hydroxypropan-2-yl)phenyl]-1-methyl-2-oxo-1,2-dihydropyridin-4-yl}oxy)cyclohexyl]cyclopropane-1-carboxamide], 2270 nM.

For `Cc1cc(F)cc(C)c1Oc1ccc(C(C)(C)O)cc1-c1cn(C)c(=O)cc1O[C@H]1CC[C@H](N2C(=O)[C@@H](C)N(C)C2=O)CC1` [Example 81, (5R)-3-[trans-4-({5-[2-(4-fluoro-2,6-dimethylphenoxy)-5-(2-hydroxypropan-2-yl)phenyl]-1-methyl-2-oxo-1,2-dihydropyridin-4-yl}oxy)cyclohexyl]-1,5-dimethylimidazolidine-2,4-dione], affinity was put at a Ki of 6740 nM. Consider `Cc1cc(F)cc(C)c1Oc1ccc(C(C)(C)O)cc1-c1cn(C)c(=O)cc1O[C@H]1CC[C@H](NC(=O)C(C)(C)CCCO)CC1` [Example 79, N-[trans-4-({5-[2-(4-fluoro-2,6-dimethylphenoxy)-5-(2-hydroxypropan-2-yl)phenyl]-1-methyl-2-oxo-1,2-dihydropyridin-4-yl}oxy)cyclohexyl]-5-hydroxy-2,2-dimethylpentanamide], for which the affinity corresponds to a Ki of 2530 nM. As for `C=CC(=O)N[C@H]1CC[C@H](Oc2cc(=O)n(C)cc2-c2cc(C(C)(C)O)ccc2Oc2c(C)cc(F)cc2C)CC1` [Example 28, N-[trans-4-({5-[2-(4-fluoro-2,6-dimethylphenoxy)-5-(2-hydroxypropan-2-yl)phenyl]-1-methyl-2-oxo-1,2-dihydropyridin-4-yl}oxy)cyclohexyl]prop-2-enamide], the figure is 1520 nM; as for `CCNC(=O)[C@H]1CC[C@H](Oc2cc(=O)n(C)cc2-c2cc(C(C)(C)O)ccc2Oc2c(C)cc(F)cc2C)CC1` [Example 63, trans-N-ethyl-4-({5-[2-(4-fluoro-2,6-dimethylphenoxy)-5-(2-hydroxypropan-2-yl)phenyl]-1-methyl-2-oxo-1,2-dihydropyridin-4-yl}oxy)cyclohexane-1-carboxamide], 5960 nM; as for `CCOC(=O)CN(C(=O)C1(C)CC1)[C@H]1CC[C@H](Oc2cc(=O)n(C)cc2-c2cc(C(C)(C)O)ccc2Oc2c(C)cc(F)cc2C)CC1` [Example 66, ethyl N-[trans-4-({5-[2-(4-fluoro-2,6-dimethylphenoxy)-5-(2-hydroxypropan-2-yl)phenyl]-1-methyl-2-oxo-1,2-dihydropyridin-4-yl}oxy)cyclohexyl]-N-(1-methylcyclopropane-1-carbonyl)glycinate], 1320 nM. Compound `CC(=O)NN[C@H]1CC[C@H](Oc2cc(=O)n(C)cc2-c2cc(C(C)(C)O)ccc2Oc2c(C)cc(F)cc2C)CC1` [Example 105, N′-[trans-4-({5-[2-(4-fluoro-2,6-dimethylphenoxy)-5-(2-hydroxypropan-2-yl)phenyl]-1-methyl-2-oxo-1,2-dihydropyridin-4-yl}oxy)cyclohexyl]acetohydrazide] came in with an inhibition constant Ki of 2160 nM. As for `Cc1cc(F)cc(C)c1Oc1ccc(C(C)(C)O)cc1-c1cn(C)c(=O)cc1O[C@H]1CC[C@H](N2C(=O)O[C@@H](C)C2=O)CC1` [Example 92, (5S)-3-[trans-4-({5-[2-(4-fluoro-2,6-dimethylphenoxy)-5-(2-hydroxypropan-2-yl)phenyl]-1-methyl-2-oxo-1,2-dihydropyridin-4-yl}oxy)cyclohexyl]-5-methyl-1,3-oxazolidine-2,4-dione], the figure is > 13000 nM; as for `Cc1cc(F)cc(C)c1Oc1ccc(C(C)(C)O)cc1-c1cn(C)c(=O)cc1O[C@H]1CC[C@H](N2C(=O)C3CC3C2=O)CC1` (relative stereo) [Example 129, 3-[trans-4-({5-[2-(4-fluoro-2,6-dimethylphenoxy)-5-(2-hydroxypropan-2-yl)phenyl]-1-methyl-2-oxo-1,2-dihydropyridin-4-yl}oxy)cyclohexyl]-3-azabicyclo[3.1.0]hexane-2,4-dione], 772 nM.

For the compound `Cc1cc(F)cc(C)c1Oc1ccc(C(C)(C)O)cc1-c1cn(C)c(=O)cc1O[C@H]1CC[C@H](NC(=O)C2(C)COC2)CC1` [Example 73, N-[trans-4-({5-[2-(4-fluoro-2,6-dimethylphenoxy)-5-(2-hydroxypropan-2-yl)phenyl]-1-methyl-2-oxo-1,2-dihydropyridin-4-yl}oxy)cyclohexyl]-3-methyloxetane-3-carboxamide], the Ki came to 2260 nM. As for `Cc1cc(F)cc(C)c1Oc1ccc(C(C)(C)O)cc1-c1cn(C)c(=O)cc1O[C@H]1CC[C@H](N2C(=O)CCC2C)CC1` (relative stereo) [Example 42, 5-[2-(4-fluoro-2,6-dimethylphenoxy)-5-(2-hydroxypropan-2-yl)phenyl]-1-methyl-4-{[trans-4-(2-methyl-5-oxopyrrolidin-1-yl)cyclohexyl]oxy}pyridin-2(1H)-one], the figure is 3840 nM.
